Assay results taken from US20220009920A1 (GB005, Inc., priority 2020, published 2022).
Read-outs that look alike come from different tables or passages of the source.

What was measured:
Assay in all cases: Large panel kinase profiling
Assay type in all cases: biochemical
[1] = molecular target: T1, STK11/LKB1 (Homo sapiens, UniProt Q15831); settings: 1 μM test article, 1 mM ATP
T1 construct: AssayQuant Technologies, Inc. (contract assay)
T1 sequence (Q15831 1-433): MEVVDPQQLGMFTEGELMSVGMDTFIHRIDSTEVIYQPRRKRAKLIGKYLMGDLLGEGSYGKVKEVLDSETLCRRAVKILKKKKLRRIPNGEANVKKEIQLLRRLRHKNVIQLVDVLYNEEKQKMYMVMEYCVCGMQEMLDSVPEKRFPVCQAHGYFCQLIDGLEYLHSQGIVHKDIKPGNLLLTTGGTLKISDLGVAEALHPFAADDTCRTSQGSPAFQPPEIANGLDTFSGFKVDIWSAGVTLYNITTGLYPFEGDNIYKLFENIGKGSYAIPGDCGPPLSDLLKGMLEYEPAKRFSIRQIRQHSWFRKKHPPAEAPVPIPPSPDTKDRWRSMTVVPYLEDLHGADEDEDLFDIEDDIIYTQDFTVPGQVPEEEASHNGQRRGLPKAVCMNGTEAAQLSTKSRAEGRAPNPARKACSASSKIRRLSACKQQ
T1 sequence (Q7RTN6 1-431 partner): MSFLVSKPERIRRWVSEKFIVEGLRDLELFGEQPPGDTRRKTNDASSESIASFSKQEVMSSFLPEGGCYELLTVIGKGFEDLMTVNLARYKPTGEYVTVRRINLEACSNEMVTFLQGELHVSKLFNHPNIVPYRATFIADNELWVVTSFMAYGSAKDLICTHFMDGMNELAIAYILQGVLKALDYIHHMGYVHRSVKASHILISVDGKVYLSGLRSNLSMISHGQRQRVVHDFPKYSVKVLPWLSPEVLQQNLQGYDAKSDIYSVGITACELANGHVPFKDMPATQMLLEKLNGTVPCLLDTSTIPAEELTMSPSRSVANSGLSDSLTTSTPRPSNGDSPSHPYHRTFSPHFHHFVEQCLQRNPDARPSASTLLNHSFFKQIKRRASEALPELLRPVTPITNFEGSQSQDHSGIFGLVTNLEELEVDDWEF
T1 sequence (Q9Y376 1-341 partner): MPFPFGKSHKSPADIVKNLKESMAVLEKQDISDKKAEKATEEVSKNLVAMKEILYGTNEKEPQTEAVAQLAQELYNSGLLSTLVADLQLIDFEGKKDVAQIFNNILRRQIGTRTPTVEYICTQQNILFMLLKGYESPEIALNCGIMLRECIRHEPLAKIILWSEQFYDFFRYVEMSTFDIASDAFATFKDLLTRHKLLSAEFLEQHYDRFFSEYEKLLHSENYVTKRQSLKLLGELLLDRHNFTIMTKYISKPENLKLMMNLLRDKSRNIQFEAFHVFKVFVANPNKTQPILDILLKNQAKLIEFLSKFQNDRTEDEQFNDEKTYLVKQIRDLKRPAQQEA
Summary of the method: (§1)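 CSox-Sensor fluorescence readout; test article 1 μM, ATP 1 mM, 30° C.; kinetic reads at 1-min intervals, Ex 360/Em 485 nm.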

[2] = molecular target: PTK2B (Homo sapiens, UniProt Q14289)
PTK2B, sequence (Q14289 whole entry, species assumed): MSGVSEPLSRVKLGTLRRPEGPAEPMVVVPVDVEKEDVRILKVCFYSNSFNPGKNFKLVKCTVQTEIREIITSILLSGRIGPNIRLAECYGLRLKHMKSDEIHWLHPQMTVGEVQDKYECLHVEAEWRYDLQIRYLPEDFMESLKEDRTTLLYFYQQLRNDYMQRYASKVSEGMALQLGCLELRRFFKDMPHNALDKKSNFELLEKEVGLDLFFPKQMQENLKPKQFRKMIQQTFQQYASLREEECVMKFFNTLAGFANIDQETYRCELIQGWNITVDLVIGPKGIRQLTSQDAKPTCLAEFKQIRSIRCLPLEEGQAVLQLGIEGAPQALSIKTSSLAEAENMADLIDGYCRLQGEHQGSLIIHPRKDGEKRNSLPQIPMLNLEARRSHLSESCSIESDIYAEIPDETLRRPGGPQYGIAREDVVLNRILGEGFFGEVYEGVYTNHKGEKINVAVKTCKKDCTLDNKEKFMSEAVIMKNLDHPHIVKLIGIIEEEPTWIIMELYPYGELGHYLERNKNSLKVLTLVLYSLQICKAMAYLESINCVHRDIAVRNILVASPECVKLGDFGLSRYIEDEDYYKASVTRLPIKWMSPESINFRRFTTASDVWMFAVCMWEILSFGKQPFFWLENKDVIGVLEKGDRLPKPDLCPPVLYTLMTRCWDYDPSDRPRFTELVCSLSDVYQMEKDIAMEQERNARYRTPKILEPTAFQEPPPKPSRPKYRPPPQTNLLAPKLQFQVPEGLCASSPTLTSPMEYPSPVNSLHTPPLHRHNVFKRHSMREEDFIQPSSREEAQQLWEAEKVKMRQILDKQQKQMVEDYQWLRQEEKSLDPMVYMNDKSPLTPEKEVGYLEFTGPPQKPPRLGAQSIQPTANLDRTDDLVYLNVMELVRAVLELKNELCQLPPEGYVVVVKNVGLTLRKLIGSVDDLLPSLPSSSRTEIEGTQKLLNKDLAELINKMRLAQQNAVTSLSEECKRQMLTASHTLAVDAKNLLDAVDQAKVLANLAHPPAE
Summary of the method: as §1

[3] = molecular target: T2, MAPK13/P38D (Homo sapiens, UniProt O15264); settings: 1 μM test article, 1 mM ATP
T2 construct: AssayQuant Technologies, Inc. (service provider)
T2 sequence (O15264 1-365): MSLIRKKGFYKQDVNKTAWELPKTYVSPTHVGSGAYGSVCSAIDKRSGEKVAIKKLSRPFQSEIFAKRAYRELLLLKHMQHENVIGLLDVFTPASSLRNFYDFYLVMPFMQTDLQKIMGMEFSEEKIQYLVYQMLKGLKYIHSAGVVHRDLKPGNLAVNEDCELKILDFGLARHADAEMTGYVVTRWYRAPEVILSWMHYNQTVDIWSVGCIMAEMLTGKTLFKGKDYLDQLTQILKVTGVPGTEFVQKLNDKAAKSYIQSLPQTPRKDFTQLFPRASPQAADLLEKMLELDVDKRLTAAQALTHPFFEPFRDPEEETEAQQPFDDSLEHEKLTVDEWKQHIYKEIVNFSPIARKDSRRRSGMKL
Summary of the method: as §1

[4] = molecular target: T3, RPS6KA4/MSK2 (Homo sapiens, UniProt O75676); settings: 1 μM test article, 1 mM ATP
T3 construct: AssayQuant Technologies, Inc. (contract assay)
T3 sequence (O75676 whole entry): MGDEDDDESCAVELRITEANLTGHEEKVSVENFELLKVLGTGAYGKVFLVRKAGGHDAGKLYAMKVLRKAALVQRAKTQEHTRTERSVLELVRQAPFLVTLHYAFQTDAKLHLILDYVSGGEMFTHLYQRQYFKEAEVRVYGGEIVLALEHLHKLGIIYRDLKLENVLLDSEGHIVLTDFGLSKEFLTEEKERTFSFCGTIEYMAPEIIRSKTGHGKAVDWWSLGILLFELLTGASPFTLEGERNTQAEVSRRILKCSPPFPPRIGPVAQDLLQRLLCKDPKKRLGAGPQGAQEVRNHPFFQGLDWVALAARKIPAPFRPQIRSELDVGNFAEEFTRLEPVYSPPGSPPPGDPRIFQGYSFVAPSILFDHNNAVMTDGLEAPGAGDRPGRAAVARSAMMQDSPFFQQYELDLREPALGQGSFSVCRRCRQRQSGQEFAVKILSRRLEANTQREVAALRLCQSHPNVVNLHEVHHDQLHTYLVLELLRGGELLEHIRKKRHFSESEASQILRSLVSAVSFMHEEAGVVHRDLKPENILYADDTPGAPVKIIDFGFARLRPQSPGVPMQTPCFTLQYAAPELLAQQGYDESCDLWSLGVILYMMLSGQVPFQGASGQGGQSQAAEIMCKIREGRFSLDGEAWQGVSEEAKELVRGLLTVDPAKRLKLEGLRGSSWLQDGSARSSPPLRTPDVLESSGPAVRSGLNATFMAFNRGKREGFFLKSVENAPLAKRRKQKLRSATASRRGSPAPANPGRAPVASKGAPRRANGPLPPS
Summary of the method: as §1

[5] = molecular target: BUB1 (Homo sapiens, UniProt O43683); settings: 1 μM test article, 1 mM ATP
BUB1, sequence (O43683 whole entry): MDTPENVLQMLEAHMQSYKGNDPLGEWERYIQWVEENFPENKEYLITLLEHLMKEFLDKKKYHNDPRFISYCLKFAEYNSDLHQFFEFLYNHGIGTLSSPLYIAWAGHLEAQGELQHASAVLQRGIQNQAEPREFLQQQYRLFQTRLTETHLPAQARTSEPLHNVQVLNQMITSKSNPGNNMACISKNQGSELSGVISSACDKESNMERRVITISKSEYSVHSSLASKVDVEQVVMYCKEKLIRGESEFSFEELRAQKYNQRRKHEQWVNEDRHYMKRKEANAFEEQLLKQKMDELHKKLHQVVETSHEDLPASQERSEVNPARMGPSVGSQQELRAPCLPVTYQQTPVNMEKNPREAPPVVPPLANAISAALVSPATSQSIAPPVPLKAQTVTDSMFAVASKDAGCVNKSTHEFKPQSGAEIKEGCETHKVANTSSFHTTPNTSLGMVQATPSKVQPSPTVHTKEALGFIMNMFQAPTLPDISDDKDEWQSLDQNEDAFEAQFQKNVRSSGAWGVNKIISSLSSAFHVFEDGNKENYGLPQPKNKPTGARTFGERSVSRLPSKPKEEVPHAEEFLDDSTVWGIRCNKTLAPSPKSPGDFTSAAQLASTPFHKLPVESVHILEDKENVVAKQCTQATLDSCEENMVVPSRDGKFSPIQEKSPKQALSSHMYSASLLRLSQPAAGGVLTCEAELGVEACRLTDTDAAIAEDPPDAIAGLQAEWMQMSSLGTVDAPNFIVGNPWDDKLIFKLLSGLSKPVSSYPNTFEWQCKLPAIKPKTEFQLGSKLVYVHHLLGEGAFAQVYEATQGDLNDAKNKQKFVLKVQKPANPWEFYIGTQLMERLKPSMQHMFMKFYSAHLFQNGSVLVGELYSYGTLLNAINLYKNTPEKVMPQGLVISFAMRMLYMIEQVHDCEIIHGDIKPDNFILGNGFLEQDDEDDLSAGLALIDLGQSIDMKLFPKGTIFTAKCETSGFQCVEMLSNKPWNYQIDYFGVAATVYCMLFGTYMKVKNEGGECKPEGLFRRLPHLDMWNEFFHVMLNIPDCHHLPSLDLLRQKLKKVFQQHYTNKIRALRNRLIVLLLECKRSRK
Summary of the method: as §1

[6] = molecular target: T4, EGFR (Homo sapiens, UniProt P00533); settings: 1 μM test article, 1 mM ATP
T4 construct: AssayQuant Technologies, Inc. (service laboratory)
T4 sequence (P00533 25-1210, species assumed): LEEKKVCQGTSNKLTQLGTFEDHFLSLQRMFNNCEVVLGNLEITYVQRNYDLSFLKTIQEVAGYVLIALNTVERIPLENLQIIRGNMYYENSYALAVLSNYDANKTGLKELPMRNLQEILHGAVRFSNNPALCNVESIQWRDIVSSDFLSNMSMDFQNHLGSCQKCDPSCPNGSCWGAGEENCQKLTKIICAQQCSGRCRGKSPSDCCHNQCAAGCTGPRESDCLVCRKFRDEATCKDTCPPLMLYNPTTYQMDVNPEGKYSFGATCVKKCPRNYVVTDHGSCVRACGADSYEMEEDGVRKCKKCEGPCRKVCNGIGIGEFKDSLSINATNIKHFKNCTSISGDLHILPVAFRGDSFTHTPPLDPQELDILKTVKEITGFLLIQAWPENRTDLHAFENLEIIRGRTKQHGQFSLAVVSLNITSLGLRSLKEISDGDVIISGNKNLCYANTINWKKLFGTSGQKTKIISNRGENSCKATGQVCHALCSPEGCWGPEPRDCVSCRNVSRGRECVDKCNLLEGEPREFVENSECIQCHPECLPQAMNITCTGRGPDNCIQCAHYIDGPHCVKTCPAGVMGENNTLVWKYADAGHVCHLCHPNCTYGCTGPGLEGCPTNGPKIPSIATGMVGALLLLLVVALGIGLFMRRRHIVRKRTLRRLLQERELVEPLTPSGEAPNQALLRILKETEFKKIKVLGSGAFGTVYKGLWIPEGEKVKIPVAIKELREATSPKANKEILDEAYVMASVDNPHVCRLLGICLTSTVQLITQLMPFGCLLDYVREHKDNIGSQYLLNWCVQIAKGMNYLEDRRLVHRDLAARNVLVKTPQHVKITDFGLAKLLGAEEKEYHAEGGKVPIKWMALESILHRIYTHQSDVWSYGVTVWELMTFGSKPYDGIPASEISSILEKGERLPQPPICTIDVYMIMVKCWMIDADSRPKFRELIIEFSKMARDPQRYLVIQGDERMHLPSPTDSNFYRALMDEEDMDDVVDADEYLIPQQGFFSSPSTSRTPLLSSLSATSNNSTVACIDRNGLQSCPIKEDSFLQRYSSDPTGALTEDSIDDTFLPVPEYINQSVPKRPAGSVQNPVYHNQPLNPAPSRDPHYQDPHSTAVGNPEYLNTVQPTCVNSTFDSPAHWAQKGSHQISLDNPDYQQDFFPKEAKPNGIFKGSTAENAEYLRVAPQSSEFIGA
Summary of the method: as §1

[7] = molecular target: T5, DAPK2 (Homo sapiens, UniProt Q9UIK4); settings: 1 μM test article, 1 mM ATP
T5 construct: AssayQuant Technologies, Inc. (service laboratory)
T5 sequence (Q9UIK4 whole entry, species assumed): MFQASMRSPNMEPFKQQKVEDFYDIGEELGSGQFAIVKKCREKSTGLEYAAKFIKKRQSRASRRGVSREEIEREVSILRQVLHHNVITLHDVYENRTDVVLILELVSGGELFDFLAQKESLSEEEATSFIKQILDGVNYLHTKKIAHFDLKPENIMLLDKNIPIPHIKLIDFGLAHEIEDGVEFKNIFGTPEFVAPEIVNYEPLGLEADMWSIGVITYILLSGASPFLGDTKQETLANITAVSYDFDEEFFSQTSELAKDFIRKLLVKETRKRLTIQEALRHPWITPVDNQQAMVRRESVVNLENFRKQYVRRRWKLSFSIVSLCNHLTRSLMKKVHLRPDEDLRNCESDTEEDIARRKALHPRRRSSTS
Summary of the method: as §1

[8] = PTK2B, 1 μM test article, 1 mM ATP, read-out: % Inhibition

SMILES | inhibition at 1 µM [1] [%] | inhibition at 1 µM [2, 8] [%] | inhibition at 1 µM [3] [%] | inhibition at 1 µM [4] [%] | inhibition at 1 µM [5] [%] | inhibition at 1 µM [6] [%] | inhibition at 1 µM [7] [%] | inhibition at 1 µM [2] [%]
C=CC(=O)N1CCCC(c2c(F)cc(C(N)=O)c3[nH]c4c(c23)CCCCC4)C1 (single isomer, unassigned) [Compound 5-6] | 23.5 | -16.1 | 6.7 | -6.1 | 8.2 | -7.8 | -19.1 | 
C=CC(=O)N1CCC[C@@H](c2c(F)cc(C(N)=O)c3[nH]c4c(c23)CC2(CC4)CC2)C1 [Compound 6-2, (S)-5-(1-acryloylpiperidin-3-yl)-6-fluoro-1,2,4,9-tetrahydrospiro[carbazole-3,1′-cyclopropane]-8-carboxamide] | -4.3 |  | 26 | -23.2 | -11.5 | -7.7 | 13.4 | -15.4
C=CC(=O)N1CCC[C@@H](c2c(F)cc(C(N)=O)c3[nH]c4c(c23)CCC4)C1 [Compound 10-2, (S)-8-(1-acryloylpiperidin-3-yl)-7-fluoro-1,2,3,4-tetrahydrocyclo-penta[b]indole-5-carboxamide] | -6 | -8.8 | 9 | -21.2 | -2.3 | 1.6 | 13.9 | 
